{"source": "patent US10316032B2", "about": "“Solid forms of a compound for modulating kinases” (Plexxikon Inc., priority 2015, dated 2019)", "key": {"[1]": {"assay": "Solubility estimates at ambient temperature (solvent aliquot addition, visual)", "format": "physicochemical", "settings": "thermodynamic from solid", "procedure": "Aliquots of various solvents were added to measured amounts of Compound I with agitation (typically sonication) at ambient temperature until complete dissolution was achieved, as judged by visual observation. Solubilities were calculated based on the total solvent used to give a solution; actual solubilities may be greater because of the volume of solvent portions utilized or a slow rate of dissolution. […] If dissolution occurred at the first aliquot the value was reported as “>”."}, "[2]": {"assay": "Interconversion (competitive slurry) experiments Form B / Form H", "format": "physicochemical", "settings": "various solvent systems, between ambient temperature and approximately 75° C.", "procedure": "Solutions of Compound I were prepared by adding sufficient solids to a given solvent or solvent system at ambient conditions such that undissolved solids were present. The mixture was then agitated in a closed vial at ambient or elevated temperature for an extended period of time. Solids were collected by vacuum filtration and analyzed."}, "B-Raf V600E kinase": {"biological_target": "B-Raf V600E kinase (Homo sapiens, UniProt P15056, V600E)", "sequence (P15056 whole entry V600E)": "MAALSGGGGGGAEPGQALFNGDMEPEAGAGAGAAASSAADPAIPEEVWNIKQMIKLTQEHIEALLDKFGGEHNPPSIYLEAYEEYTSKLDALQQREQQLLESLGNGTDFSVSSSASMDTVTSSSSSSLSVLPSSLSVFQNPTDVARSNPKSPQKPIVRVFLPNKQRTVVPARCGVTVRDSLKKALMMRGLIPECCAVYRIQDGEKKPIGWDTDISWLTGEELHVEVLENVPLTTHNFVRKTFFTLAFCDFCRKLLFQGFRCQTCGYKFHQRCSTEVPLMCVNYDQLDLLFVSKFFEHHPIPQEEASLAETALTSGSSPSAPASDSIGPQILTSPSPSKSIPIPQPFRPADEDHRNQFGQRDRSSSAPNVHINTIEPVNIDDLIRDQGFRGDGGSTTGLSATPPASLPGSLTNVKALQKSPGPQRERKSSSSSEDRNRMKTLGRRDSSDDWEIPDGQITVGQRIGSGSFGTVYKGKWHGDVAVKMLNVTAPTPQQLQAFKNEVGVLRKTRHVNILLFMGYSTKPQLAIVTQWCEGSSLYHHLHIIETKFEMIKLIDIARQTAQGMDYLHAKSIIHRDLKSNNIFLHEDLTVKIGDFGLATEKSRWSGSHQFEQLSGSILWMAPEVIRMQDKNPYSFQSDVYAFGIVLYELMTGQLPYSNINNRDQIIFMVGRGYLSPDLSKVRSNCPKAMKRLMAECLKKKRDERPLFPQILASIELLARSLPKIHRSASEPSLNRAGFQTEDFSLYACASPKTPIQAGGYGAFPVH", "assay": "B-Raf V600E kinase inhibition"}}}
{"smiles": "O=C(c1c(F)ccc(NS(=O)(=O)N2CC[C@@H](F)C2)c1F)c1c[nH]c2ncc(-c3cnc(C4CC4)nc3)cc12", "note": "[Compound I Form B, (3R)—N-(3-(5-(2-cyclopropylpyrimidin-5-yl)-1H-pyrrolo[2,3-b]pyridine-3-carbonyl)-2,4-difluorophenyl)-3-fluoropyrrolidine-1-sulfonamide]", "values": [{"measurement": "solubility", "setting": "[1]; aqueous with cosolvent or surfactant or cyclodextrin, EtOH/Water (75/25 vol/vol)", "result": "~5000", "unit": "µg/mL"}, {"measurement": "solubility", "setting": "[1]; organic solvent or mixture, ACN", "result": "~5000", "unit": "µg/mL"}, {"measurement": "solubility", "setting": "[1]; organic solvent or mixture, Acetone", "result": "~36000", "unit": "µg/mL"}, {"measurement": "solubility", "setting": "[1]; organic solvent or mixture, DCM", "result": "< 1000", "unit": "µg/mL"}, {"measurement": "solubility", "setting": "[1]; organic solvent or mixture, DMF", "result": "> 97000", "unit": "µg/mL"}, {"measurement": "solubility", "setting": "[1]; organic solvent or mixture, DMSO", "result": "> 84000", "unit": "µg/mL"}, {"measurement": "solubility", "setting": "[1]; organic solvent or mixture, Dioxane", "result": "> 103000", "unit": "µg/mL"}, {"measurement": "solubility", "setting": "[1]; organic solvent or mixture, EtOAc", "result": "~5000", "unit": "µg/mL"}, {"measurement": "solubility", "setting": "[1]; organic solvent or mixture, EtOH", "result": "~1000", "unit": "µg/mL"}, {"measurement": "solubility", "setting": "[1]; organic solvent or mixture, Heptane", "result": "< 1000", "unit": "µg/mL"}, {"measurement": "solubility", "setting": "[1]; organic solvent or mixture, IPA", "result": "< 1000", "unit": "µg/mL"}, {"measurement": "solubility", "setting": "[1]; organic solvent or mixture, MTBE", "result": "< 2000", "unit": "µg/mL"}, {"measurement": "solubility", "setting": "[1]; organic solvent or mixture, MeOH", "result": "~4000", "unit": "µg/mL"}, {"measurement": "solubility", "setting": "[1]; organic solvent or mixture, THF", "result": "> 102000", "unit": "µg/mL"}, {"measurement": "solubility", "setting": "[1]; organic solvent or mixture, t-BuOH", "result": "< 2000", "unit": "µg/mL"}, {"measurement": "solubility", "setting": "[1]; Water", "result": "< 1000", "unit": "µg/mL"}, {"measurement": "relative stability of solid forms (competitive slurry)", "setting": "[2]; listed as Form B", "result": "less stable than Form H"}]}
{"smiles": "O=C(c1c(F)ccc(NS(=O)(=O)N2CC[C@@H](F)C2)c1F)c1c[nH]c2ncc(-c3cnc(C4CC4)nc3)cc12", "note": "[Compound I Form H, (3R)—N-(3-(5-(2-cyclopropylpyrimidin-5-yl)-1H-pyrrolo[2,3-b]pyridine-3-carbonyl)-2,4-difluorophenyl)-3-fluoropyrrolidine-1-sulfonamide]", "values": [{"measurement": "relative stability of solid forms (competitive slurry)", "setting": "[2]; listed as Form H", "result": "more stable than Form B"}]}
{"smiles": "O=C(c1c(F)ccc(NS(=O)(=O)N2CC[C@@H](F)C2)c1F)c1c[nH]c2ncc(-c3cnc(C4CC4)nc3)cc12", "note": "[Compound I, (3R)—N-(3-(5-(2-cyclopropylpyrimidin-5-yl)-1H-pyrrolo[2,3-b]pyridine-3-carbonyl)-2,4-difluorophenyl)-3-fluoropyrrolidine-1-sulfonamide]", "values": [{"measurement": "IC50", "setting": "B-Raf V600E kinase", "result": "< 100", "unit": "nM"}]}
